Measured values: PMC7187627 (Antimicrobial Agents and Chemotherapy, 2019)
“Also recorded” adds a separate entry of the source.

Experiment: Safety and tolerability (adverse events, laboratory tests, ECG), multiple-ascending-dose phase 1 study
Assay type: in vivo
Excerpt: Subjects were monitored closely with serial physical examinations, blood evaluations, and 12-lead ECGs. Subjects underwent safety laboratory testing, including measurement of blood cell counts (white blood cell [WBC] with differential, hemoglobin, and platelets), serum chemistry (sodium, potassium, chloride, calcium, bicarbonate, glucose, creatinine, blood urea nitrogen [BUN], creatine kinase [CK], aspartate aminotransferase [AST], alanine aminotransferase [ALT], alkaline phosphatase [ALP], total bilirubin, protein, albumin, amylase, and lipase) and urinalysis (protein, blood, and glucose). Study halting criteria had been established and were reviewed by an independent safety monitor (ISM) and the Safety Monitoring Committee (SMC) prior to proceeding with dosing within a cohort or to the next cohort.
The safety population included all subjects who received at least one dose of the study drug. The safety and tolerability of CRS3123 were evaluated by the sequential review of reported adverse events (AEs), changes from baseline in physical examination findings, vital sign measurements, safety laboratory tests (hematology, clinical chemistry, and urinalysis), and key 12-lead ECG findings. All safety assessments were summarized with descriptive statistics or frequency counts.
The period of observation for AE reporting began on day 1 at the time of study drug administration and continued through the final visit.
All AEs were coded to system organ class (SOC) and preferred term (PT) using the Medical Dictionary for Regulatory Activities (MedDRA), version 17.0 (https://www.meddra.org/). A treatment-emergent AE (TEAE) was defined as any AE that occurred during the study observation period (i.e., from day 1 at the time of study drug administration through the final visit). An AE with a partial onset date was classified as a TEAE if the reported partial onset date could not definitely be identified as before the date of study drug administration. Any AE with a missing onset date or missing time on day of study drug administration was classified as a TEAE.
To count the overall number of subjects who experienced each TEAE and calculation of an occurrence rate, a subject experiencing multiple occurrences of an AE was counted only once for that PT. Similarly, if a subject experienced multiple TEAEs within the same SOC, that subject was counted once to calculate an occurrence rate for the SOC. To count the number of subjects who experienced each TEAE by severity classification (mild, moderate, severe, and life-threatening) and calculate an occurrence rate, a subject experiencing multiple occurrences of an AE of the same severity was counted once in that particular severity classification for that PT. If a subject experienced multiple occurrences of an AE of differing severities, only the most severe occurrence within each PT was counted.

[1] = 200, 400, 600 mg orally twice daily for 10 days
[2] = all TEAEs, Cohort A, 200 mg Q12h (n = 8)

Which QTcF interval (12-lead ECG, all doses) does the source give for O=c1cc(NCCCN[C@@H]2CCOc3c(Br)cc(Br)cc32)[nH]c2ccsc12 [CRS3123] here?
The QTcF interval was “no QTcF interval changes; also recorded: no prolongation of the QTcF interval”.

What about the “deaths, serious adverse events, severe TEAEs” value [1] of the same compound?
Its value is “no serious adverse events (SAEs) or severe treatment-emergent adverse events (TEAEs) reported”.

What about the “overall safety and tolerability” value [1] of the same compound?
Its value is “generally safe and well tolerated”.

What about the “proportion of subjects reporting at least one treatment-related AE” value (active groups (placebo 33.3%)) of the same compound?
Its value is 12.5 % subjects.

And the “No. (%) of subjects: Alanine aminotransferase increased” value (all TEAEs, All active (n = 24))?
The value was 3 (12.5).

And the “No. (%) of subjects: Amylase increased” value (all TEAEs, All active (n = 24))?
The value was 3 (12.5).

And the “No. (%) of subjects: Anxiety” value (all TEAEs, All active (n = 24))?
The value was 1 (4.2).

And the “No. (%) of subjects: Arthropod bite” value (all TEAEs, All active (n = 24))?
The value was 1 (4.2).

And the “No. (%) of subjects: Aspartate aminotransferase increased” value (all TEAEs, All active (n = 24))?
The value was 2 (8.3).

And the “No. (%) of subjects: Blood bilirubin increased” value (all TEAEs, All active (n = 24))?
Its value is 1 (4.2).

What about the “No. (%) of subjects: Blood calcium increased” value (all TEAEs, All active (n = 24)) of the same compound?
The value was 1 (4.2).

What about the “No. (%) of subjects: Blood potassium increased” value (all TEAEs, All active (n = 24)) of the same compound?
The value was 1 (4.2).

What about the “No. (%) of subjects: Blood pressure, diastolic, decreased” value (all TEAEs, All active (n = 24)) of the same compound?
Its value is 1 (4.2).

What about the “No. (%) of subjects: Blood pressure, diastolic, increased” value (all TEAEs, All active (n = 24)) of the same compound?
Its value is 1 (4.2).

And the “No. (%) of subjects: Blood pressure, systolic, decreased” value (all TEAEs, All active (n = 24))?
Its value is 0 (0.0).

And the “No. (%) of subjects: Blood pressure, systolic, increased” value (all TEAEs, All active (n = 24))?
Its value is 1 (4.2).

And the “No. (%) of subjects: Diarrhea” value (all TEAEs, All active (n = 24))?
Its value is 2 (8.3).

And the “No. (%) of subjects: Dry skin” value (all TEAEs, All active (n = 24))?
The value was 1 (4.2).

And the “No. (%) of subjects: Dysgeusia” value (all TEAEs, All active (n = 24))?
The value was 1 (4.2).

And the “No. (%) of subjects: Ear and labyrinth disorders (system organ class)” value (all TEAEs, All active (n = 24))?
The value was 1 (4.2).

And the “No. (%) of subjects: Ear discomfort” value (all TEAEs, All active (n = 24))?
Its value is 1 (4.2).

What about the “No. (%) of subjects: Erythema” value (all TEAEs, All active (n = 24)) of the same compound?
The value was 1 (4.2).

What about the “No. (%) of subjects: Gastrointestinal disorders (system organ class)” value (all TEAEs, All active (n = 24)) of the same compound?
The value was 2 (8.3).

And the “No. (%) of subjects: General disorders and administration site conditions (system organ class)” value (all TEAEs, All active (n = 24))?
The value was 1 (4.2).

And the “No. (%) of subjects: Headache” value (all TEAEs, All active (n = 24))?
Its value is 2 (8.3).

What about the “No. (%) of subjects: Hemoglobin decreased” value (all TEAEs, All active (n = 24)) of the same compound?
The value was 4 (16.7).

And the “No. (%) of subjects: Infections and infestations (system organ class)” value (all TEAEs, All active (n = 24))?
Its value is 1 (4.2).

What about the “No. (%) of subjects: Infusion site thrombosis” value (all TEAEs, All active (n = 24)) of the same compound?
Its value is 1 (4.2).

And the “No. (%) of subjects: Injury, poisoning, and procedural complications (system organ class)” value (all TEAEs, All active (n = 24))?
Its value is 1 (4.2).

What about the “No. (%) of subjects: Investigations (system organ class)” value (all TEAEs, All active (n = 24)) of the same compound?
Its value is 15 (62.5).

What about the “No. (%) of subjects: Lipase increased” value (all TEAEs, All active (n = 24)) of the same compound?
The value was 5 (20.8).

And the “No. (%) of subjects: Musculoskeletal and connective tissue disorders (system organ class)” value (all TEAEs, All active (n = 24))?
Its value is 1 (4.2).

What about the “No. (%) of subjects: Myalgia” value (all TEAEs, All active (n = 24)) of the same compound?
Its value is 1 (4.2).

And the “No. (%) of subjects: Nervous system disorders (system organ class)” value (all TEAEs, All active (n = 24))?
The value was 3 (12.5).

What about the “No. (%) of subjects: Oropharyngeal pain” value (all TEAEs, All active (n = 24)) of the same compound?
The value was 1 (4.2).

And the “No. (%) of subjects: Psychiatric disorders (system organ class)” value (all TEAEs, All active (n = 24))?
The value was 1 (4.2).

What about the “No. (%) of subjects: Respiratory, thoracic, and mediastinal disorders (system organ class)” value (all TEAEs, All active (n = 24)) of the same compound?
The value was 2 (8.3).

And the “No. (%) of subjects: Skin and subcutaneous tissue disorders (system organ class)” value (all TEAEs, All active (n = 24))?
Its value is 2 (8.3).

What about the “No. (%) of subjects: Subjects with TEAEs” value (all TEAEs, All active (n = 24)) of the same compound?
Its value is 20 (83.3).

And the “No. (%) of subjects: Throat irritation” value (all TEAEs, All active (n = 24))?
The value was 1 (4.2).

What about the “No. (%) of subjects: Upper respiratory tract infection” value (all TEAEs, All active (n = 24)) of the same compound?
Its value is 1 (4.2).

What about the “No. (%) of subjects: White blood cell count increased” value (all TEAEs, All active (n = 24)) of the same compound?
Its value is 0 (0.0).

And the “No. (%) of subjects: Alanine aminotransferase increased” value [2]?
Its value is 1 (12.5).

What about the “No. (%) of subjects: Amylase increased” value [2] of the same compound?
Its value is 1 (12.5).

And the “No. (%) of subjects: Anxiety” value [2]?
Its value is 1 (12.5).

What about the “No. (%) of subjects: Arthropod bite” value [2] of the same compound?
The value was 1 (12.5).
